SMILES strings stand for the structures.

For the test, the target named is T1, human JAK2 (Homo sapiens, UniProt O60674).
T1 construct: JAK2 (a.a. 828-1132); His tag (N); made in house; host or cells: insect cells (baculovirus)
T1 sequence (O60674 828-1132): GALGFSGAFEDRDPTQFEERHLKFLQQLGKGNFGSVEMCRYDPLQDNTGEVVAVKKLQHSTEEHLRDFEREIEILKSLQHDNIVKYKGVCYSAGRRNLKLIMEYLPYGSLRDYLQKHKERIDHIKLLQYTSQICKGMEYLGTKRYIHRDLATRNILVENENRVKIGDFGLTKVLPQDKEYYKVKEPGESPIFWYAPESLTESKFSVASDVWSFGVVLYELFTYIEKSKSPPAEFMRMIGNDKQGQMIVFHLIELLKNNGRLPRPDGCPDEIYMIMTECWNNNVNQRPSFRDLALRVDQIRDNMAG
As to the kind of experiment: In vitro JAK kinase assay (HTRF, phosphorylation of biotinylated peptide). In kind it is biochemical. The conditions noted are these: catalytic domain a.a. 828-1132, 30 μM ATP, 500 nM peptide, room temperature 1 hr; read-out: JAK-2 IC50. Put shortly:
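His-tagged human JAK2 catalytic domain (a.a. 828-1132), baculovirus/insect-cell expressed; phosphorylation of 500 nM biotinylated peptide at 30 μM ATP in 50 mM Tris pH 7.8, 100 mM NaCl, 5 mM DTT, 0.01% BSA. 1 h at room temperature, EDTA stop, HTRF read (Eu-Py20/SA-APC); IC50.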
In the case of `CCS(=O)(=O)N1CC(CC#N)(n2cc(-c3ccnc(Nc4ccc(C(=O)N5CCC(OC)CC5)cc4)n3)cn2)C1` [Example 275, (1-(ethylsulfonyl)-3-4-(2-(4-((4-methoxypiperidin-1-yl)carbonyl)phenylamino)pyrimidin-4-yl)-1H-pyrazol-1-ylazetidin-3-yl)acetonitrile], the IC50 was less than 100 nM.
The result for `CCS(=O)(=O)N1CC(CC#N)(n2cc(-c3ccnc(Nc4ccc(C(=O)N5CC[C@@H](C#N)C5)cc4)n3)cn2)C1` [Example 276, (R)-1-(4-(4-(1-(3-(cyanomethyl)-1-(ethylsulfonyl)azetidin-3-yl)-1H-pyrazol-4-yl)pyrimidin-2-ylamino)benzoyl)pyrrolidine-3-carbonitrile] reads less than 100 nM; that for `CCS(=O)(=O)N1CC(CC#N)(n2cc(-c3ccnc(Nc4ccc(C(=O)N5CC[C@H](OC)C5)cc4)n3)cn2)C1` [Example 277, (S)-2-(1-(ethylsulfonyl)-3-(4-(2-(4-(3-methoxypyrrolidine-1-carbonyl)phenylamino)pyrimidin-4-yl)-1H-pyrazol-1-yl)azetidin-3-yl)acetonitrile], less than 100 nM; that for `CCS(=O)(=O)N1CC(CC#N)(n2cc(-c3ccnc(Nc4ccc(C(=O)N5CC[C@@H](O)C5)cc4)n3)cn2)C1` [Example 278, (R)-2-(1-(ethylsulfonyl)-3-(4-(2-(4-(3-hydroxypyrrolidine-1-carbonyl)phenylamino)pyrimidin-4-yl)-1H-pyrazol-1-yl)azetidin-3-yl)acetonitrile], less than 100 nM.
Regarding `CCS(=O)(=O)N1CC(CC#N)(n2cc(-c3ccnc(Nc4ccc(C(=O)N5CCN(C)CC5)cc4)n3)cn2)C1` [Example 279, 2-(1-(ethylsulfonyl)-3-(4-(2-(4-(4-methylpiperazine-1-carbonyl)phenylamino)pyrimidin-4-yl)-1H-pyrazol-1-yl)azetidin-3-yl)acetonitrile], the IC50 is less than 100 nM.
The same measure for `CCS(=O)(=O)N1CC(CC#N)(n2cc(-c3ccnc(Nc4ccc(C(=O)N5CC[C@@H](NC(C)=O)C5)cc4)n3)cn2)C1` [Example 280, (R)—N-(1-(4-(4-(1-(3-(cyanomethyl)-1-(ethylsulfonyl)azetidin-3-yl)-1H-pyrazol-4-yl)pyrimidin-2-ylamino)benzoyl)pyrrolidin-3-yl)acetamide]: less than 100 nM; for `CCS(=O)(=O)N1CC(CC#N)(n2cc(-c3ccnc(Nc4ccc(C(=O)N5CCN(C(C)=O)CC5)cc4)n3)cn2)C1` [Example 281, 2-(3-(4-(2-(4-(4-acetylpiperazine-1-carbonyl)phenylamino)pyrimidin-4-yl)-1H-pyrazol-1-yl)-1-(ethylsulfonyl)azetidin-3-yl)acetonitrile]: less than 100 nM; for `CCS(=O)(=O)N1CC(CC#N)(n2cc(-c3ccnc(Nc4ccc(C(=O)N5CC[C@H](F)C5)cc4)n3)cn2)C1` [Example 283, (S)-2-(1-(ethylsulfonyl)-3-(4-(2-(4-(3-fluoropyrrolidine-1-carbonyl)phenylamino)pyrimidin-4-yl)-1H-pyrazol-1-yl)azetidin-3-yl)acetonitrile]: less than 100 nM.
The result for `CCOC(=O)N1CCC(NC(=O)c2ccc(Nc3nccc(-c4cnn(C5(CC#N)CN(S(=O)(=O)CC)C5)c4)n3)cc2)CC1` [Example 284, Ethyl 4-(4-(4-(1-(3-(cyanomethyl)-1-(ethylsulfonyl)azetidin-3-yl)-1H-pyrazol-4-yl)pyrimidin-2-ylamino)benzamido)piperidine-1-carboxylate] reads less than 100 nM.
The same measure for `N#CCC1(n2cc(-c3ccnc(Nc4ccc(C(=O)N5CC[C@@H](C#N)C5)cc4)n3)cn2)CC(C#N)C1` (stereo partly drawn) [Example 297, (R)-1-(4-(4-(1-(3-cyano-1-(cyanomethyl)cyclobutyl)-1H-pyrazol-4-yl)pyrimidin-2-ylamino)benzoyl)pyrrolidine-3-carbonitrile]: less than 100 nM; for `CC(=O)N[C@@H]1CCN(C(=O)c2ccc(Nc3nccc(-c4cnn(C5(CC#N)CC(C#N)C5)c4)n3)cc2)C1` (stereo partly drawn) [Example 299, (R)—N-(1-(4-(4-(1-(3-cyano-1-(cyanomethyl)cyclobutyl)-1H-pyrazol-4-yl)pyrimidin-2-ylamino)benzoyl)pyrrolidin-3-yl)acetamide]: less than 100 nM; for `N#CCC1(n2cc(-c3ccnc(Nc4ccc(C(=O)N5[C@@H]6CC[C@H]5C[C@@H](O)C6)cc4)n3)cn2)CC(C#N)C1` (stereo partly drawn) [Example 300, 3-(cyanomethyl)-3-(4-(2-(4-((3-endo)-3-hydroxy-8-azabicyclo[3.2.1]octane-8-carbonyl)phenylamino)pyrimidin-4-yl)-1H-pyrazol-1-yl)cyclobutanecarbonitrile]: less than 100 nM.
